Legend:
[1] = test system: Escherichia coli (NCTC12241); assay: Rate of kill assay based on BS EN 1276:1997, clean and dirty conditions; format: cell-based; conditions: 3× MIC (0.375% v/v; CS 0.15% w/v)
From the text: The rate of kill assay is based on the British and European standard test conditions BS EN 1276:1997.
The initial inoculum of microorganism ranged between 10^6-10^7 colony forming units per mL.

[2] = test system: Escherichia coli (NCTC12241); assay: Minimum inhibitory concentration (MIC); format: cell-based; conditions: three times the minimum inhibitory concentration

O=S(=O)([O-])[O-].[Cu+2] [CS, copper sulphate]
Surviving Bacterial Count (cfu/mL) under clean and dirty conditions ([1]; contact time 0 s, clean (no bovine albumin)): 3.2 × 10^6 cfu/mL | Surviving Bacterial Count (cfu/mL) under clean and dirty conditions ([1]; contact time 0 s, dirty (0.3% bovine albumin)): 1.4 × 10^7 cfu/mL | Surviving Bacterial Count (cfu/mL) under clean and dirty conditions ([1]; contact time 30 s, clean (no bovine albumin)): 1.7 × 10^6 cfu/mL | Surviving Bacterial Count (cfu/mL) under clean and dirty conditions ([1]; contact time 30 s, dirty (0.3% bovine albumin)): 1.1 × 10^7 cfu/mL | Surviving Bacterial Count (cfu/mL) under clean and dirty conditions ([1]; contact time 60 s, clean (no bovine albumin)): 6.2 × 10^5 cfu/mL | Surviving Bacterial Count (cfu/mL) under clean and dirty conditions ([1]; contact time 60 s, dirty (0.3% bovine albumin)): 9.7 × 10^6 cfu/mL | Surviving Bacterial Count (cfu/mL) under clean and dirty conditions ([1]; contact time 120 s, clean (no bovine albumin)): 3.3 × 10^5 cfu/mL | Surviving Bacterial Count (cfu/mL) under clean and dirty conditions ([1]; contact time 120 s, dirty (0.3% bovine albumin)): 5.2 × 10^6 cfu/mL | Surviving Bacterial Count (cfu/mL) under clean and dirty conditions ([1]; contact time 300 s, clean (no bovine albumin)): 5.0 × 10^3 cfu/mL | Surviving Bacterial Count (cfu/mL) under clean and dirty conditions ([1]; contact time 300 s, dirty (0.3% bovine albumin)): 3.2 × 10^4 cfu/mL | 3MIC [2]: 0.15%

From US12186284B2, “Antimicrobial formulations for the treatment of veterinary hoof infections” (Provita Eurotech Ltd, priority 2016, dated 2025)
